Experimental data reported in paper PMC8145572 (Viruses, 2021).
Entries after “also recorded” stand apart in the source; their conditions may differ. Like-named read-outs stand apart in the source and are kept apart here.

Columns and labels:
[1] = WST-1 cell proliferation assay, uninfected HFF-1 cells; details: human
HFF-1 cells = assay: as above; details: uninfected HFF-1 cells; for cytotoxicity in uninfected cells: evaluated concentrations; for CC50: 72 h
[2] = test system: Dengue virus serotype 2 (DENV2), strain New Guinea C; assay: Antiviral evaluation; type: cell-based; details: HFF-1 cells; for EC50: MOI 0.1, AUC of viral burden over 2 days; for viral burden in all treatment arms: all concentrations
[3] = test system: DENV-infected SK-N-MC cells; assay: WST-1 cell viability assay, DENV-infected SK-N-MC cells; type: cell-based, human; details: MOI 0.1, 3 days
[4] = test system: DENV-infected HFF-1 cells; assay: WST-1 cell viability assay, DENV-infected HFF-1 cells; type: cell-based, human; details: MOI 1, 3 days
[5] = test system: DENV-infected HUH-7 cells; assay: WST-1 cell viability assay, DENV-infected HUH-7 cells; type: cell-based, human; details: MOI 0.01, 3 days
HUH-7 cells = assay: WST-1 cell proliferation assay, uninfected HUH-7 cells; details: uninfected HUH-7 cells; for cytotoxicity in uninfected cells: evaluated concentrations; for CC50: 72 h
[6] = as above; details: human
[7] = WST-1 cell proliferation assay, uninfected SK-N-MC cells; details: human
SK-N-MC cells = assay: as above; details: uninfected SK-N-MC cells; for cytotoxicity in uninfected cells: evaluated concentrations; for CC50: 72 h
[8] = test system: Dengue virus serotype 2 (DENV2), strain New Guinea C; assay: Antiviral evaluation; type: cell-based; details: SK-N-MC cells; for EC50: MOI 0.1, AUC of viral burden over 4 days
[9] = test system: Dengue virus serotype 2 (DENV2), strain New Guinea C; assay: Antiviral evaluation; type: cell-based; details: for EC50: MOI 0.01, AUC of viral burden over 3 days
[10] = test system: Dengue virus serotype 2 (DENV2), strain New Guinea C; assay: Combination drug assay UV-4B and IFN, DENV-infected SK-N-MC cells, plaque assay; type: cell-based; details: 400 µM
[11] = Phase I study, one-time dose of 1000 mg; cited from earlier work
[12] = test system: Dengue virus serotype 2 (DENV2), strain New Guinea C; assay: Combination drug assay UV-4B and IFN, DENV-infected HUH-7 cells, plaque assay; type: cell-based; details: day 2, 25 µM

Molecule	CC50 at 72 h [1]	cytotoxicity in uninfected cells (HFF-1 cells)	EC50 ([2]; Dengue virus, DENV2, 48 h)	viral burden in all treatment arms [2]	cell viability of infected cells [3]	cell viability of infected cells [4]	cell viability of infected cells [5]	cytotoxicity in uninfected cells (HUH-7 cells)	CC50 at 72 h [6]	CC50 at 72 h [7]	cytotoxicity in uninfected cells (SK-N-MC cells)	EC50 ([8]; Dengue virus, DENV2, 96 h)	EC50 ([9]; HUH-7 cells, read-out: EC50)	CC50 (HFF-1 cells)	CC50 (HUH-7 cells)	CC50 (SK-N-MC cells)	further results
NC(=O)c1nc(F)c[nH]c1=O [FAV, favipiravir]	> 500 µM	no cytotoxicity	> 500 µM	completely ineffective	limited effect on cell health	limited effect on cell health	limited effect on cell health	no cytotoxicity	> 500 µM	> 500 µM	no cytotoxicity	288 µM	149 µM	–	–	–	lowering of viral titers ([8]; Day 2, 250 µM): approximately 0.6 log10 PFU/mL; total reduction of viral titers ([8]; Day 2, 500 µM): 1.3 log10 PFU/mL; additional decrease of viral titers over 250 µM ([8]; Day 2, 500 µM versus 250 µM): 0.7 log10 PFU/mL; EC50 ([9]; Dengue virus, DENV2, Huh-7, 72 h, HUH-7 cells): 147 µM; decrease in titers relative to the control ([9]; HUH-7 cells, 250 µM): approximate tenfold decrease; maximum reduction in viral titers ([9]; HUH-7 cells, highest concentration evaluated): 1.2 log10 PFU/mL
CC(C)OC(=O)[C@H](C)N[P@](=O)(OC[C@H]1O[C@@H](n2ccc(=O)[nH]c2=O)[C@](C)(F)[C@@H]1O)Oc1ccccc1 [SOF, sofosbuvir]	> 10 µM	no cytotoxicity	> 10 µM	comparable to the no treatment control	minimal changes in cell viability	did not change relative to the uninfected control	yielded improvements in cell viability	no cytotoxicity	> 10 µM	> 10 µM	no cytotoxicity	> 10 µM	–	–	–	–	viral burden in all treatment arms ([8]; all concentrations): comparable to the no treatment control; EC50 ([9]; Dengue virus, DENV2, 72 h, HUH-7 cells, read-out: EC50): 6.96 µM; viral titers ([9]; HUH-7 cells, 10 µM): below the limit of detection; reduction in viral burden ([9]; HUH-7 cells, 4 and 6 µM): ~100 fold
COCCCCCCCCCN1C[C@H](O)[C@@H](O)[C@H](O)[C@H]1CO.Cl [UV-4B]	–	–	–	–	concentrations ≥ 25 µM caused dramatic increases in cell viability	moderate declines in viability observed at 100 and 400 µM	remained comparable to the infected control; also recorded: declines in cell viability observed at UV-4B concentrations of 100 and 400 µM	–	–	–	–	–	23.8 µM	> 400 µM	135 µM	> 400 µM	decline in peak viral titers, monotherapy [10]: 3.8 log10 PFU/mL; Cmax [11]: ~40 µM; EC50 [2]: 37.4 µM; reduction of viral titers, monotherapy [12]: 1.7 log10 PFU/mL; EC50 [8]: 49.4 µM; decrease in viral titers ([8]; day 2, 25 µM): 1.6 log10 PFU/mL; decrease in viral titers ([8]; day 2, 400 µM): 3.6 log10 PFU/mL
interferon-alpha [IFN]	–	–	–	–	–	Percent cell viability stayed constant	concentrations ≥ 10 IU/mL markedly increased cell viability	–	–	–	–	–	–	>10,000 IU/mL	>10,000 IU/mL	1074 IU/mL	reduction of peak titers ([9]; HUH-7 cells, 100 IU/mL): 2.4 log10 PFU/mL; effect on production of infectious virus ([9]; HUH-7 cells, 10,000 IU/mL): completely curbed the production of infectious virus
